Data set [1] has as its system SK-N-MC. Put plainly: Drug uptake in human SK-N-MC cells at 111 kBq after 2 hrs by […]. Type of data set: ADME, cell-based.
For data set [2], the target named is T1, Thymidine kinase, cytosolic (Homo sapiens) (UniProt P04183).
T1 sequence (whole entry): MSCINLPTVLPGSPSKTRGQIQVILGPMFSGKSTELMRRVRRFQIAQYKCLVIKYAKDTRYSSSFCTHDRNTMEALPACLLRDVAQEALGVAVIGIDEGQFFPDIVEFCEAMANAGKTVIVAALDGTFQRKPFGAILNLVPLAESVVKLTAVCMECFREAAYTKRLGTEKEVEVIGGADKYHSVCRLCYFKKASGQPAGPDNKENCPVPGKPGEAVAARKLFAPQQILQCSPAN
Put plainly: Inhibition of human recombinant TK1 phosphorylation after 15 mins by pyruvate kinase/lactate dehydrogenase coupled assay relative to thymidine.

As to `[3H]C([3H])([3H])c1cn([C@H]2C[C@H](O)[C@@H](CO)O2)c(=O)[nH]c1=O`, the Drug uptake in data set [1] worked out at 29 %ID/mg/ml.

For orientation: inhibition means how much of the control response was suppressed. With `C#CCn1c(=O)c(C)cn([C@H]2C[C@H](O)[C@@H](CO)O2)c1=O`, the inhibition in data set [2] was 86.7%.

For the origin of these results see ChEMBL document CHEMBL1142512, “Synthesis, in vitro, and in silico evaluation of organometallic technetium and rhenium thymidine complexes with retained substrate activity toward human thymidine kinase type 1” (J Med Chem, 2008).
